Reference: US7094760B2, “Peptides for treatment of inflammation and shock” (Salpep Biotechnology, Inc., priority 1996, dated 2006)
Ends that are not written are not given here.

Legend:
[1] = tested on: isolated jejunal segments from egg albumin-sensitised rats; test: antigen-induced contraction of isolated jejunal segments, Examples 3 and 6; parameters: species or system rat; key to Biological Activity = inhibition of antigen-induced jejunal contraction by test peptide: +++ = highest inhibition (~60%); ++ = moderate inhibition (~40%); + = lowest inhibition (~20%); − = no inhibition
Procedure: SGP-T, at doses as low as 6.8×10^−7M, reduced antigen induced contractions of these isolated intestinal tissues by 60% (data not shown).
Analogues and fragments of SGP-T were tested for their ability to inhibit antigen (egg albumin)-induced intestinal contractions, using isolated jejunal segments from egg albumin-sensitised rats, as described in Example 3.

[2] = tested on: jejunal segments from ovalbumin-sensitized rats; test: antigen-induced jejunal segment contraction, URE/OA ratio, Example 7; parameters: species or system rat; settings: 10 μg peptide; for URE/OA: 100 ng OA, 20 μg urecholine
Procedure: Animals and Tissue Preparation: Male Sprague-Dawley rats were sensitized to egg albumin (ovalbumin, OA) with 50 ng of Pertussis bordetella toxin as an adjuvant. Four to six weeks after sensitization, the rats were anaethetised with sodium pentobarbital and the jejunum was removed. Two cm sections of the jejunum were mounted in tissue baths under 0.75 g of isometric tension, and the tissues were allowed to equilibrate for 20 min prior to beginning the experiment.
10 μg of SGP-T or one of its analogues or fragments was added to a bath, while control tissues received the saline vehicle. Following a 10 min incubation, 100 ng of OA prepared in 0.9% saline was added. After the tissue had reached a maximal contractile response, the tissues were washed extensively to remove OA and peptide and, after the tissues had established baseline tension, 20 μg of urecholine (URE; a cholinergic-muscarinic receptor agonist) was added to determine the maximal contractile response of the tissue. The tissues were then removed from the bath, cleared of all underlying mucosa and the weight of the remaining muscle was determined.
Data Analysis: The tension (measured in grams) per gram tissue weight generated by each tissue in response to OA and URE was calculated. To normalize for differences in the ability of each tissue segment to contract in response to the muscle stimulants, the contractile response to […]. Thus, a measure of the antigen-induced contraction was expressed as the URE/OA ratio.
The data was analyzed using the one-way analysis of variance (ANOVA) and differences between groups was determined using the Student t-test for unpaired samples. The results are shown in FIGS. 7 and 8 and Tables 3 and 4.

[3] = tested on: LPS (Salmonella typhosa)-induced hypotension in sialadenectomized rats; test: endotoxin (LPS)-induced hypotension, sialadenectomized rats; format: in vivo, rat
Procedure: (§1) The animal model of endotoxic shock used involves intravenous injection of endotoxin (3.5 mg/kg of lipopolysaccharide (LPS) from Salmonella typhosa) into pentobarbital-anaesthetized Sprague-Dawley rats, to produce a fall in mean arterial blood pressure within 3 to 5 minutes. The endotoxin was injected slowly over 1 min. via the jugular vein, and mean arterial blood pressure in mm mercury (MABP) was monitored continuously for 60 min, with the average blood pressure being calculated at 15, 30, 45 and 60 min. Studies were performed on unoperated rats and rats with their submandibular glands removed (sialadenectomized).
(§2) The results shown in Table 1 are the averages of three different experiments using the protocol defined above. The data shown represent the average decrease in MABP (dec MABP) and the % Decrease in MABP over the 60 minutes following LPS administration. SGP-S (100μg/kg) and SGP-T (100 μg/kg) were administered 90 min. before LPS. […] Neither SGP-T nor SGP-S, when given prior to the LPS challenge, had appreciable effects on MABP.
(§3) The dose-response relationship of the inhibitory effect of SGP-T and SGP-S on endotoxin-induced hypotension was also examined and the results are shown in FIG. 1.

[4] = tested on: LPS (Salmonella typhosa)-induced hypotension in unoperated rats; test: endotoxin (LPS)-induced hypotension, unoperated rats; format: in vivo, rat
Procedure: as §1, §2
Overall, SGP-T reduced by 60% the decrease and the percent decrease in MABP induced by endotoxin, relative to pre-LPS values. SGP-S, on the other hand, had no effect on the shock induced by endotoxin in unoperated rats.
as §3

[5] = peptide 100 μg/kg 90 min before LPS 3.5 mg/kg iv

Substance	Biological Activity = inhibition of antigen-induced jejunal contraction by test peptide [1]	URE/OA ([2]; Table 3, saline 4.0 ± 0.4)	anti-anaphylactic activity in jejunal assay, in words [2]	other results
ADIFEGG [T3, alanine analogue of SGP-T]	−	3.6 ± 0.9		
FE-Citrulline			loss of biological activity	URE/OA ([2]; Table 4, saline 5.7 ± 1.0): 5.0 ± 1.1
FE-Proline			loss of biological activity	URE/OA ([2]; Table 4, saline 5.7 ± 1.0): 6.2 ± 1.3
FE-Sarcosine				URE/OA ([2]; Table 4, saline 5.7 ± 1.0): 10.0 ± 1.6
FEG	++ (++ = moderate inhibition (~40%))			
FEGGG [T6]	++ (++ = moderate inhibition (~40%))	10.7 ± 2.0	no effect on activity	
NH2-Ser-Gly-Glu-Gly-Val-Arg-COOH (H-SGEGVR-OH) [SGP-S, submandibular gland peptide S, SGEGVR]				effect on drop in MABP after LPS [3]: significantly reduced the drop in MABP; % Dec = percent decrease in MABP relative to MABPbef [3, 5]: −32.3 ± 3.9 %; MABPaft = average MABP for 60 mins after LPS injection [3, 5]: 81.6 ± 5.8 mm Hg; dec MABP = decrease in MABP after LPS relative to MABPbef [3, 5]: −37.6 ± 4.4 mm Hg; effect on drop in MABP / shock induced by endotoxin [4]: no effect; % Dec = percent decrease in MABP relative to MABPbef [4, 5]: −22.9 ± 1.3%; MABPaft = average MABP for 60 mins after LPS injection [4, 5]: 95.2 ± 4.3 mm Hg; dec MABP = decrease in MABP after LPS relative to MABPbef [4, 5]: −28.1 ± 1.8 mm Hg
STDIFEGG [T2, analogue of SGP-T]	−	3.58 ± 1.07		
TAIFEGG [T7, alanine analogue of SGP-T]	+++ (+++ = highest inhibition (~60%))	12.3 ± 2.2	minimal effect on prevention of anaphylaxis	
TDAFEGG [T10, alanine analogue of SGP-T]	+ (+ = lowest inhibition (~20%))	8.3 ± 1.9	minimal effect on prevention of anaphylaxis	
TDIAEGG [T11, alanine analogue of SGP-T]	−	5.2 ± 1.2		
TDIFAGG [T9, alanine analogue of SGP-T]	−	7.2 ± 1.1		
TDIFE [T4]	−	1.7 ± 0.3	abolished anti-anaphylactic activity	
TDIFEGG-NH2 [T5, SGP-T with amidated terminal glycine]	−	4.3 ± 0.7	abolished anti-anaphylactic activity	
